Test results as given in PubChem BioAssay AID328 (DTP/NCI, 2004).
Where “and” joins values, the source holds several entries; their conditions need not be identical. Identical values can stand only once. Toxic doses and inconclusive results are not listed. How the source made its calls: active means survival T/C of 150% or more; inactive means T/C below 125% in these data.

System: BDF1 mice, P388 leukemia ip, median survival T/C
Test: NCI In Vivo Anticancer Drug Screen. Data for tumor model P388 Leukemia (intraperitoneal) in B6D2F1 (BDF1) mice
Settings: endpoint: median survival time, higher = longer survival
Procedure, shortened: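 Transplantable tumour in mice; compound vs vehicle dosing; survival scored; ratio of treated to control reported.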

[1] = dose: 25.0 mg/kg/injection, schedule: Q01DX009 (ip), vehicle: saline with Tween-80
[2] = dose: 75.0 mg/kg/injection, schedule: Q01DX009 (ip), vehicle: saline with Tween-80
[3] = dose: 50.0 mg/kg/injection, schedule: Q01DX009 (ip), vehicle: saline with Tween-80
[4] = dose: 100.0 mg/kg/injection, schedule: Q01DX009 (ip), vehicle: saline with Tween-80
[5] = dose: 200.0 mg/kg/injection, schedule: Q01DX009 (ip), vehicle: saline with Tween-80
[6] = dose: 400.0 mg/kg/injection, schedule: Q01DX009 (ip), vehicle: saline with Tween-80
[7] = dose: 100.0 mg/kg/injection, schedule: Q04DX003 (ip), vehicle: saline with Tween-80
[8] = dose: 200.0 mg/kg/injection, schedule: Q04DX003 (ip), vehicle: saline with Tween-80
[9] = dose: 400.0 mg/kg/injection, schedule: Q04DX003 (ip), vehicle: saline with Tween-80
[10] = dose: 2.5 mg/kg/injection, schedule: Q01DX009 (ip), vehicle: other
[11] = dose: 100.0 mg/kg/injection, schedule: Q04DX003 (ip), vehicle: saline
[12] = dose: 200.0 mg/kg/injection, schedule: Q04DX003 (ip), vehicle: saline
[13] = dose: 50.0 mg/kg/injection, schedule: Q01DX009 (ip), vehicle: saline
[14] = dose: 100.0 mg/kg/injection, schedule: Q01DX009 (ip), vehicle: saline

Measured: T/C

CCOC(=S)SCC(=O)Nc1ccc(I)cc1
inactive: dose: 15.0 mg/kg/injection, schedule: Q01DX009 (ip), vehicle: saline with Tween-80 93 % of control | dose: 30.0 mg/kg/injection, schedule: Q01DX009 (ip), vehicle: saline with Tween-80 95 % of control | dose: 60.0 mg/kg/injection, schedule: Q01DX009 (ip), vehicle: saline with Tween-80 98 % of control

Clc1c(CBr)ccc(CBr)c1Cl
inactive: dose: 6.25 mg/kg/injection, schedule: Q01DX009 (ip), vehicle: saline with Tween-80 104 % of control | dose: 6.25 mg/kg/injection, schedule: Q04DX003 (ip), vehicle: saline sonified 100 % of control | dose: 12.5 mg/kg/injection, schedule: Q01DX009 (ip), vehicle: saline with Tween-80 114 % of control | dose: 12.5 mg/kg/injection, schedule: Q04DX003 (ip), vehicle: saline sonified 90 % of control | [1] 123 % of control | dose: 25.0 mg/kg/injection, schedule: Q04DX003 (ip), vehicle: saline sonified 90 % of control

CCOC(=O)c1ccc(NC(=O)Nc2nc(C)cs2)cc1
inactive: dose: 25.0 mg/kg/injection, schedule: Q01DX009 (ip), vehicle: other 103 % of control | dose: 100.0 mg/kg/injection, schedule: Q01DX009 (ip), vehicle: other 99 % of control

Nc1nc2ncc(CNc3ccc(C(=O)NC(CCC(=O)O)C(=O)O)cn3)nc2c(=O)[nH]1 (stereo not drawn)
inactive: dose: 37.5 mg/kg/injection, schedule: Q01DX009 (ip), vehicle: saline with Tween-80 92 % of control | dose: 62.5 mg/kg/injection, schedule: Q01DX009 (ip), vehicle: saline with Tween-80 92 % of control | [2] 107 % of control

CN(C)c1ccc(C(O)C(N)=O)cc1 (stereo not drawn)
inactive: dose: 6.25 mg/kg/injection, schedule: Q01DX009 (ip), vehicle: saline 90 % of control | dose: 25.0 mg/kg/injection, schedule: Q01DX009 (ip), vehicle: saline 90 % of control

NC(=O)c1cc(O)c(Br)c(O)c1
inactive: dose: 100.0 mg/kg/injection, schedule: Q01DX001 (ip), vehicle: saline 100 % of control | dose: 200.0 mg/kg/injection, schedule: Q01DX001 (ip), vehicle: saline 109 % of control | dose: 400.0 mg/kg/injection, schedule: Q01DX001 (ip), vehicle: saline 95 % of control

CCN(CC)c1cc(=S)c2c(ccc3ccccc32)o1
inactive: [3] 100 % of control | [4] 106 % of control | [5] 103 % of control

COc1cc([N+](=O)[O-])cc(OC)c1OC
inactive: [3] 100 % of control | [4] 94 % of control | [5] 102 % of control | [6] 91 % of control

S=c1nc(COc2ccccc2Cl)[nH][nH]1
inactive: [7] 100 % of control | [8] 109 % of control | [9] 104 % of control

C=C1C(=O)OCC2C(C(=O)O)=CC3C(C)C(C)=CC123 (stereo not drawn)
inactive: [10] 105 % of control | dose: 5.0 mg/kg/injection, schedule: Q04DX003 (ip), vehicle: other 117 % of control | dose: 10.0 mg/kg/injection, schedule: Q01DX009 (ip), vehicle: Klucel (hydroxypropylcellulose) (HPC) 105 % of control and 121 % of control | dose: 10.0 mg/kg/injection, schedule: Q04DX003 (ip), vehicle: other 111 % of control | dose: 20.0 mg/kg/injection, schedule: Q01DX009 (ip), vehicle: Klucel (hydroxypropylcellulose) (HPC) 117 % of control and 120 % of control | dose: 20.0 mg/kg/injection, schedule: Q04DX003 (ip), vehicle: other 124 % of control | dose: 40.0 mg/kg/injection, schedule: Q01DX009 (ip), vehicle: Klucel (hydroxypropylcellulose) (HPC) 121 % of control | dose: 40.0 mg/kg/injection, schedule: Q04DX003 (ip), vehicle: other 119 % of control

COC(OC)C12CC(OC(=O)N1)C(C)CO2 (stereo not drawn)
inactive: dose: 50.0 mg/kg/injection, schedule: Q04DX003 (ip), vehicle: saline 98 % of control | [11] 106 % of control | [12] 96 % of control

CC(=O)Oc1cc2c(cc1OC(C)=O)C(Br)CCCC2=O (stereo not drawn)
inactive: dose: 75.0 mg/kg/injection, schedule: Q04DX003 (ip), vehicle: other 95 % of control | dose: 150.0 mg/kg/injection, schedule: Q04DX003 (ip), vehicle: other 95 % of control | dose: 300.0 mg/kg/injection, schedule: Q04DX003 (ip), vehicle: other 109 % of control

c1ccc2c(c1)Sc1cnccc1N2CC1CO1 (stereo not drawn)
inactive: [11] 104 % of control | [12] 90 % of control | dose: 400.0 mg/kg/injection, schedule: Q04DX003 (ip), vehicle: saline 95 % of control

CCNC(=S)N/N=C\C=N/NC(=S)NCC
inactive: [2] 90 % of control | dose: 300.0 mg/kg/injection, schedule: Q01DX009 (ip), vehicle: saline with Tween-80 91 % of control

CC1(C)COC(c2ccc(C(C)(C)C)cc2C(O)(c2cc(C(C)(C)C)ccc2C2=NC(C)(C)CO2)c2cc(C(C)(C)C)ccc2C2=NC(C)(C)CO2)=N1
inactive: [7] 92 % of control and 94 % of control | [8] 94 % of control | [9] 90 % of control and 94 % of control

COC1=C(OC)C(=O)C(C/C=C(\C)CC/C=C(\C)CC/C=C(\C)CC/C=C(\C)CC/C=C(\C)CC/C=C(\C)CC/C=C(\C)CC/C=C(\C)CCC=C(C)C)=C(C)C1=O
inactive: dose: 5.0 mg/kg/injection, schedule: Q01DX025 (ip), vehicle: saline with Tween-80 109 % of control | dose: 10.0 mg/kg/injection, schedule: Q01DX025 (ip), vehicle: saline with Tween-80 106 % of control | dose: 20.0 mg/kg/injection, schedule: Q01DX025 (ip), vehicle: saline with Tween-80 104 % of control | dose: 40.0 mg/kg/injection, schedule: Q01DX025 (ip), vehicle: saline with Tween-80 98 % of control

N#CC(O)Cc1ccccc1 (stereo not drawn)
inactive: [10] 100 % of control | dose: 5.0 mg/kg/injection, schedule: Q01DX009 (ip), vehicle: other 100 % of control | dose: 10.0 mg/kg/injection, schedule: Q01DX009 (ip), vehicle: other 100 % of control

Cc1ccc(CN(CC(=O)O)S(C)(=O)=O)cc1
inactive: dose: 100.0 mg/kg/injection, schedule: Q04DX003 (ip), vehicle: other 106 % of control | dose: 200.0 mg/kg/injection, schedule: Q04DX003 (ip), vehicle: other 109 % of control | dose: 400.0 mg/kg/injection, schedule: Q04DX003 (ip), vehicle: other 94 % of control

O=S(=O)(Nc1ccc(NS(=O)(=O)c2ccccc2)c(S(=O)(=O)c2ccccc2)c1)c1ccccc1
inactive: dose: 100.0 mg/kg/injection, schedule: Q01DX001 (ip), vehicle: saline with Tween-80 100 % of control | dose: 200.0 mg/kg/injection, schedule: Q01DX001 (ip), vehicle: saline with Tween-80 100 % of control | dose: 400.0 mg/kg/injection, schedule: Q01DX001 (ip), vehicle: saline with Tween-80 100 % of control

COc1ccc(C(=O)N(N)C2CCCCC2)cc1
inactive: [13] 105 % of control | [14] 105 % of control | dose: 200.0 mg/kg/injection, schedule: Q01DX009 (ip), vehicle: saline 100 % of control

C=CCC(CC)(C(=O)O)C(=O)O
inactive: [13] 100 % of control | [14] 90 % of control

Cc1ccc([N+](=O)[O-])cc1NC(=O)SCCOC(=O)COc1ccc(Cl)cc1Cl
inactive: [7] 86 % of control | [8] 100 % of control | [9] 90 % of control

O=C(NC(=O)c1c(F)cccc1F)Nc1ccc(Br)cc1
inactive: [3] 101 % of control | [4] 100 % of control | [5] 96 % of control

Cc1cc(Cl)nc(Cl)c1C(N)=O
inactive: dose: 50.0 mg/kg/injection, schedule: Q01DX005 (ip), vehicle: saline with Tween-80 100 % of control | dose: 100.0 mg/kg/injection, schedule: Q01DX005 (ip), vehicle: saline with Tween-80 100 % of control | dose: 200.0 mg/kg/injection, schedule: Q01DX005 (ip), vehicle: saline with Tween-80 100 % of control

C=CCN(CC=C)c1ncnc2[nH]ncc12
inactive: [1] 100 % of control | [3] 100 % of control | [4] 109 % of control

COC(=O)C(CSCSC)NC(=O)/C=C/c1ccc(C)cc1 (stereo not drawn)
inactive: [3] 109 % of control | [4] 109 % of control | [7] 91 % of control | [5] 92 % of control | [8] 91 % of control | [6] 100 % of control | [9] 88 % of control

C=CCCCCCCCCC(=O)NCc1cccnc1
inactive: [4] 86 % of control | [5] 95 % of control | [6] 100 % of control

CO/C(O)=c1/nc2c(n(C)c1=N)=CCCC2
inactive: [3] 100 % of control | [4] 104 % of control
